# Data: patent US9278118B2, “Pharmaceutical combination for the treatment and/or chemosensibilization of refractory tumors to anticancer drugs” (Centro de Ingenieria Genetica Y Biotecnologia, priority 2006, dated 2016)
# Where two headings read alike, the source gives them in different places.
# Tests used:
# [1] = system: H-125 or OCI-AML3 cells; assay: Cell viability (MTS) assay, simultaneous P15 peptide + cytostatic drug, 72 hours; format: cell-based, human
# Procedure: Finally, the cell viability and the IC50 values were determined as above described in this invention.
# [2] = system: SW948 cells; assay: Cell viability (MTS) assay, P15 pre-treatment on intrinsic drug-refractory tumor cells; format: cell-based, human
# [3] = system: SW948 cells; assay: In vivo chemosensibilization, SW948 tumors in nude mice, sequential administration; conditions: P15 0.5 mg/kg/day i.p. 5 days, then cytostatic 5 mg/kg/day 5 days, FIG. 2A-2C
# Procedure: (§1) The animal model used in this invention was based on the implantation of human tumors in nude mice (Nu/Nu, BalBC). Briefly, 5×10^6 H-125 or OCI-AML3 cells were suspended in Phosphate Buffer Solution (PBS) and inoculated subcutaneously. After tumor debut (approx. 30 mm^3), treatment was started using the pharmaceutical combination described in this invention. To evaluate the antitumor effect of the pharmaceutical combination, the tumor mass volume was measured and the respective volume was calculated using the formule: V=widght^2×lenght/2.
# For this purpose, 5×10^6 SW948 cells were implanted in nude mice as previously described in this invention. After tumor debut the pharmaceutical combination was sequentially administered as follow: First, the P15 peptide ingredient was administered intraperitoneal at 0.5 mg/kg/day during 5 days. Subsequently, cisplatin (FIG. 2A), Paclitaxel (FIG. 2B) and doxorubicin (FIG. 2C) were administered at 5 mg/kg/day during further 5 days. […] These findings also provide the evidences that the pharmaceutical combination in this invention is able to bypass the commonly observed intrinsic tumor resistance when the ingredients are sequentially administered.
# [4] = system: H-125 cells; assay: Cell viability (MTS) assay, sequential: P15 pre-treatment, then cytostatic drug
# [5] = system: H-125 or OCI-AML3 tumor cells; assay: Cancer animal model, human tumor xenografted in nude mice, simultaneous administration; format: in vivo, nude mice (Nu/Nu, BalBC); conditions: for antitumor effect (tumor volume): cytostatic 1 mg/kg/day i.p. concomitantly with P15 0.5 mg/kg/day i.p., 5 days, FIG. 1A-1C; for interaction with P15, antitumor effect in vivo: administered along with P15, FIG. 4
# Procedure: as §1, with “Briefly, 5×10^6 H-125 or OCI-AML3 cells were suspended in Phosphate Buffer Solution (PBS) and inoculated subcutaneously.” left out
# (§2) After tumor debut, the ingredients of the pharmaceutical combination were administered as follow: The P15 peptide in saline solution was administered intraperitoneal at 0.5 mg/kg/day during 5 days. Concomitantly, intraperitoneal injection of cisplatin (FIG. 1A), or cyclophosphamide (FIG. 1B) or Mitomycin (FIG. 1C) were performed at 1 mg/kg/day in the same frequency. The cytostatic drugs are also solved in saline solution. Tumor volume was registered as described above in this invention.
# [6] = system: Nucleofosmin; assay: P15-regulated protein profile, nuclear extracts of H-125 cells; format: cell-based, human; conditions: down-regulated Nucleofosmin, P15 40 minutes
# [7] = system: T-Plastin; assay: as above; format: cell-based, human; conditions: down-regulated T-Plastin, P15 40 minutes
# [8] = system: Y-box1 transcription factor; assay: as above; format: cell-based, human; conditions: down-regulated Y-box1 transcription factor, P15 40 minutes
# [9] = system: Eritropoietin precursor; assay: as above; format: cell-based, human; conditions: down-regulated Eritropoietin precursor, P15 40 minutes
# [10] = system: Gliceraldehyde 6-phosphate deshydrogenase; conditions: down-regulated Gliceraldehyde 6-phosphate deshydrogenase; H-125 cells, P15 40 minutes
# Procedure: (§3) H-125 cells were treated or not with the P15 peptide ingredient of the pharmaceutical combination described in this invention during 40 minutes. Subsequently, cell monolayers were washed with PBS and cells were scrapped from the surface. […] To analyze the P15-regulated proteins, the respective nuclear protein extracts were alternatively solved by 2D bidimensional gels (pH 4-7) and/or Liquid chromatography (nano HPLC) coupled to Mass spectrometer.
# (§4) For this purpose, nuclear protein extracts coming from H-125 cells treated or not with the P15 peptide ingredient were analyzed as previously described in this invention.
# [11] = system: Glucose-6-phosphate isomerase; conditions: down-regulated Glucose-6-phosphate isomerase; H-125 cells, P15 40 minutes
# Procedure: as §3, §4
# [12] = system: Heat Shock Proteins (HSP-27, -70 y -90); conditions: down-regulated Heat Shock Proteins (HSP-27, -70 y -90); H-125 cells, P15 40 minutes
# Procedure: as §3, §4
# [13] = system: Piruvate kinase; conditions: down-regulated Piruvate kinase; H-125 cells, P15 40 minutes
# Procedure: as §3, §4
# [14] = system: Proteasome activator complex; conditions: down-regulated Proteasome activator complex; H-125 cells, P15 40 minutes
# Procedure: as §3, §4
# [15] = system: S-gluthathione transferase; conditions: down-regulated S-gluthathione transferase; H-125 cells, P15 40 minutes
# Procedure: as §3, §4
# [16] = system: Tubulin alpha-1; conditions: up-regulated Tubulin alpha-1; H-125 cells, P15 40 minutes
# Procedure: as §3, §4
# [17] = system: Tubulin beta-2; conditions: up-regulated Tubulin beta-2; H-125 cells, P15 40 minutes
# Procedure: as §3, §4
# [18] = system: Tubulin beta-3; conditions: up-regulated Tubulin beta-3; H-125 cells, P15 40 minutes
# Procedure: as §3, §4
# [19] = system: Ubiquitin activated E1 enzyme; conditions: down-regulated Ubiquitin activated E1 enzyme; H-125 cells, P15 40 minutes
# Procedure: as §3, §4
# [20] = system: Translational controled tumor protein; assay: P15-regulated protein profile, nuclear extracts of H-125 cells; format: cell-based, human; conditions: down-regulated Translational controled tumor protein, P15 40 minutes
# [21] = system: Prohibitin; assay: as above; format: cell-based, human; conditions: up-regulated Prohibitin, P15 40 minutes
# [22] = system: OCI-AML3 cells; assay: Animal model of AML, P15 + anti-leukemic chemotherapeutics; format: in vivo, nude mice (Nu/Nu, BalBC); conditions: combination with P15, animal model of AML; FIG. 3
# Procedure: as §1, with “Briefly, 5×10^6 H-125 or OCI-AML3 cells were suspended in Phosphate Buffer Solution (PBS) and inoculated subcutaneously.” left out
# as §2
# [23] = H-125 or OCI-AML3 cells, 72 hours, simultaneous P15 50 μM, read-out: IC50, Cytostatic drug + P15 (50 μM)
# [24] = Homo sapiens, H-125 or OCI-AML3 cells, 72 hours, no P15, read-out: IC50, Cytostatic drug alone
# [25] = read-out: IC50, Cytostatic drug + P15 (10 μM), H-125 or OCI-AML3 cells, 72 hours, simultaneous P15 10 μM
# [26] = Homo sapiens, P15 pre-treatment, read-out: IC50, Cytostatic drug + P15 pre-treatment
# [27] = Homo sapiens, no P15 pre-treatment, read-out: IC50, Cytostatic drug alone
# [28] = Homo sapiens, NCI-H125, read-out: IC50, Cytostatic drug alone
# [29] = H-125 or OCI-AML3 cells, 72 hours, no P15, read-out: IC50, Cytostatic drug alone
# [30] = read-out: IC50, Cytostatic drug alone, H-125 cells, 72 hours, no P15 pre-treatment
Compound,"IC50 [1, 23] [µM]","IC50 [1, 24] [µM]","IC50 [1, 25] [µM]","IC50 [4, 28] [µM]",other results
"CC(=O)O[C@H]1C(=O)[C@@]2(C)[C@H]([C@H](OC(=O)c3ccccc3)[C@]3(O)C[C@H](OC(=O)[C@H](O)[C@@H](NC(=O)c4ccccc4)c4ccccc4)C(C)=C1C3(C)C)[C@]1(OC(C)=O)CO[C@@H]1C[C@@H]2O [Paclitaxel, paclitaxel]",0.003,0.017,0.008,0.017,"IC50 [2, 26]: 97 µM; IC50 [2, 27]: ≥ 1000 µM; chemosensibilization in vivo (tumor response to cytostatic) [3]: revert the chemorefractory phenotype"
"N.N.[Cl][Pt][Cl] [Cisplatin, cisplatin]",0.04,–,0.53,–,"IC50 [1, 29]: 0.72 µM; IC50 ([2]; P15 pre-treatment, read-out: IC50, Cytostatic drug + P15 pre-treatment): 120 µM; IC50 ([2]; no P15 pre-treatment, read-out: IC50, Cytostatic drug alone): ≥ 1000 µM; antitumor effect (tumor volume) [5]: complete tumor regression; chemosensibilization in vivo (tumor response to cytostatic) [3]: revert the chemorefractory phenotype; IC50 [4, 30]: 0.72 µM"
CWMSPRHLGTC [P15],–,–,–,–,Inhibition rate [6]: 48; Inhibition rate [7]: 3.34; Inhibition rate [8]: 3.33; Inhibition rate [9]: 120; Inhibition rate [10]: 6.62; Inhibition rate [11]: 8.53; Inhibition rate [12]: 2.5; Inhibition rate [13]: 8.34; Inhibition rate [14]: 3.35; Inhibition rate [15]: 4.87; Activation rate [16]: 3.23; Activation rate [17]: 2.56; Activation rate [18]: 3.15; Inhibition rate [19]: 2.49; Inhibition rate [20]: 4.32; Activation rate [21]: 2.28
"Nc1nc(F)nc2c1ncn2[C@@H]1O[C@H](CO)[C@@H](O)[C@@H]1O [Fludarabine, fludarabine]",0.05,0.87,0.096,0.865,–
"CC(C)C[C@H](NC(=O)[C@H](Cc1ccccc1)NC(=O)c1cnccn1)B(O)O [Velcade, Bortezomib]",0.7,2,1.2,2,–
"CO[C@@]12[C@H](COC(N)=O)C3=C(C(=O)C(C)=C(N)C3=O)N1C[C@@H]1N[C@@H]12 [Mitomycin C, mitomycin C]",0.009,0.994,0.093,0.994,antitumor effect (tumor volume) [5]: complete tumor regression
"N.N.O=C([O-])C1(C(=O)[O-])CCC1.[Pt+2] [Carboplatin, carboplatin]",0.036,–,0.07,–,"IC50 [1, 29]: 0.65 µM; interaction with P15, antitumor effect in vivo [5]: synergistic interactions; IC50 [4, 30]: 0.45 µM"
"COc1cc([C@@H]2c3cc4c(cc3[C@@H](O[C@@H]3O[C@@H]5CO[C@@H](C)O[C@H]5[C@H](O)[C@H]3O)[C@H]3COC(=O)[C@H]23)OCO4)cc(OC)c1O [Etoposide, etoposide]",0.02,0.78,0.06,0.561,"interaction with P15, antitumor effect in vivo [5]: synergistic interactions"
"O=c1[nH]cc(F)c(=O)[nH]1 [5-Fluorouracil, 5-fluorouracil]",0.06,1.2,0.42,1.2,–
"O=C1c2c(O)ccc(O)c2C(=O)c2c(NCCNCCO)ccc(NCCNCCO)c21 [Mitoxantrone, mitoxantrone]",0.032,0.754,0.064,0.7,"interaction with P15, antitumor effect in vivo [22]: great synergistic interaction"
"O=P1(N(CCCl)CCCl)NCCCO1 (stereo not shown) [Cyclophosphamide, cyclophosphamide]",–,–,–,2.4,"IC50 ([1]; Homo sapiens, 72 h, read-out: IC50, Cytostatic drug alone): 2.4 µM; IC50 ([1]; read-out: IC50, Cytostatic drug + P15 (10 μM)): 1 µM; IC50 ([1]; read-out: IC50, Cytostatic drug + P15 (50 μM)): 0.085 µM; antitumor effect (tumor volume) [5]: complete tumor regression; IC50 ([4]; read-out: IC50, Cytostatic drug + P15 pre-treatment): 0.1 µM"
"COc1cccc2c1C(=O)c1c(O)c3c(c(O)c1C2=O)C[C@@](O)(C(=O)CO)C[C@@H]3O[C@H]1C[C@H](N)[C@H](O)[C@H](C)O1 [Doxorubicin, doxorubicin]",0.076,0.423,0.2,0.423,"IC50 [2, 26]: 320 µM; IC50 [2, 27]: ≥ 1000 µM; chemosensibilization in vivo (tumor response to cytostatic) [3]: revert the chemorefractory phenotype"
"CC[C@]1(O)C[C@H]2CN(CCc3c([nH]c4ccccc34)[C@@](C(=O)OC)(c3cc4c(cc3OC)N(C=O)[C@H]3[C@@](O)(C(=O)OC)[C@H](OC(C)=O)[C@]5(CC)C=CCN6CC[C@]43[C@@H]65)C2)C1 [Vincristin, vincristin]",0.008,0.856,0.1,0.856,–
"Nc1ccn([C@@H]2O[C@H](CO)[C@@H](O)[C@@H]2O)c(=O)n1 [Cytarabine (AraC), cytarabine]",0.068,1,0.11,0.98,"interaction with P15, antitumor effect in vivo [22]: great synergistic interaction"
